Source: patent US12606836B2, “Process for extracellular secretion of Brazzein” (MAGELLAN LIFE SCIENCES LTD., priority 2016, dated 2026)
Where two headings read alike, the source gives them in different places.

B1: Brazzein(A28D): wild-type TypeIII Brazzein; residue 50 of pelB-Brazzein mutated from Alanine to Aspartate; mature protein from Seq Id No. 8 (protein)
chain: MKYLLPTAAAGLLLLAAQPAMADKCKKVYENYPVSKCQLANQCNYDCKLDKHARSGECFYDEKRNLQCICDYCEY
modifications: misc_feature 1..234 Synthetic: nucleotide Sequence encoding pelB conjugated to Brazzein(A28D)

Assays:
[1] = test system: taste panel; assay: Sensory analysis of purified Brazzein (taste panel, sweetness threshold versus sucrose); assay type: in vivo, humans; conditions: for Experimental Threshold: first sample sensed as sweet, 200 microliter applied to anterior tongue, 30 tasters; for Relative Sweetness (by weight): relative to sucrose, 1% (w/v) sucrose reference
Procedure: A portion of the purified Brazzein (A28D) was lyophilized and re-dissolved in deionized water to 1.0 mg/mL. From this, Brazzein (A28D) solutions with following concentrations were made: 0.5, 1.0, 2.0, 3.0, 4.0, 5.0, 6.0, 7.0, 8.0, 9.0, and 10.0 μg/mL. A 1% (w/v) sucrose solution, the lowest concentration of sucrose detectable by humans, was used as a reference. The taste panel consisted of fifteen females and fifteen males with normal health and normal sense of taste. Two-hundred-microliter samples were applied to the anterior region of the tongue. After each test, the mouth was rinsed with tap water. The tasters sampled from the lower concentration samples to higher. Each taster chose the first sample that could be sensed for sweetness. Sweetness potencies were reported relative to sucrose on a weight basis.

[2] = cited from earlier work
[3] = Thermal stability of secreted Brazzein (heating of cell free supernatant, SDS-PAGE); assay type: physicochemical; conditions: cell free supernatant heated at 80° C. for 60 mins, centrifuged at 17,500 g, FIG. 11
Procedure: Protein expression was analyzed by SDS-PAGE on 15% Tris-Glycine gels. To analyze protein in the cell culture medium, 17 μL of cell free supernatant (corresponding to 0.07% of total culture volume) was mixed with 17 μL of 2× reducing sample buffer, heated for 5 mins in a PCR machine, briefly spun and loaded into the gel. The gel was run at a constant voltage of 125V till the dye front exited the gel. The gels were washed in MILLI-Q® water for 1 hour and stained with Coomassie Stain. To analyze protein in whole cells, frozen cell pellets were thawed, re-suspended in 50 μL of MILLI-Q*water. 17 μL of resuspended cells were mixed with 17 μL of 2× Reducing Sample Buffer, heated for 5 mins in a PCR machine, briefly spun and loaded into the gel. The gel was run at constant voltage of 125V till the dye front exited it. The gels were washed in MILLI-Q*water for 1 hour and stained with Coomassie Stain.
[…] The supernatant was analyzed by SDS-PAGE. Protein quantitation was done using BCA assay kit. As a result of heating, most of the endogenous E. coli proteins present in the cell free supernatant precipitated, leaving >90% pure Brazzein in solution.

| Molecule | Experimental Threshold [1] | Relative Sweetness (by weight) [1] | sweeter than sucrose ([2]; in comparison to 2% sucrose aqueous solution) | sweeter than sucrose ([2]; in comparison to 10% sucrose) | thermal stability: Brazzein in soluble supernatant after heating [3] | sweeter than sucrose on a weight basis ([1]; relative to 1% (w/v) sucrose reference) |
| --- | --- | --- | --- | --- | --- | --- |
| OC[C@H]1O[C@@](CO)(O[C@H]2O[C@H](CO)[C@@H](O)[C@H](O)[C@H]2O)[C@@H](O)[C@@H]1O [Sucrose, reference compound] | 1 % [g/100 mL] | 1 | – | – | – | – |
| Brazzein: high-potency thermostable sweet protein, originally isolated from the fruit of Pentadiplandra brazzeana Baillon (DKCKKVYENYPVSKCQLANQCNYDCKLDKHARSGECFYDEKRNLQCICDYCEY; Synthetic: Amino Acid Sequence of pelB-Brazzein(A28D)) | – | – | 2,500 times | 500 times | Presence of Brazzein in lanes 1 and 2 | – |
| B1 | 0.0006 % [g/100 mL] | 1660 | – | – | – | 1660 times |
